Measurements from article PMC5845353, “The selective cathepsin K inhibitor MIV-711 attenuates joint pathology in experimental animal models of osteoarthritis” (Journal of Translational Medicine, 2018).
Where “and” joins values, the source holds several entries; their conditions need not be identical. Equal entries are not always repeated.

Key:
[1] = target: rabbit cathepsin K enzyme; set-up: method as in PMID 29743078; details: read-out: Ki against rabbit cathepsin K enzyme; cited from earlier work
[2] = system: rabbits subjected to anterior cruciate ligament transection (ACLT); experiment: Rabbit ACLT study, µCT osteophyte volume; assay type: in vivo; details: 30 and 100 µmol/kg, data not shown
Description: Starting 1 week after sham operation or ACLT, animals were dosed daily for 7 weeks by oral gavage with either MIV-711 (synthesized by Medivir and given as a suspension in 1% Methocel A4C in water) or vehicle (1% Methocel A4C in water) at a dose volume of 4 mL/kg. The four treatment groups (n = 7 in each group) were: (1) sham + vehicle; (2) ACLT + vehicle; (3) ACLT + MIV-711, 30 µmol/kg (low dose) and (4) ACLT + MIV-711, 100 µmol/kg (high dose).
Femora and tibias from all animals were subjected to µCT scanning without and with contrast reagent, to visualize bone and cartilage, respectively. Samples were scanned on a high-resolution, volumetric µCT scanner (μCT40, ScanCo Medical, Zurich, CH). The image data was acquired with the following parameters: 36 μm isotropic voxel resolution at 300 ms exposure time, 2000 views and 1 frame per view. Each sample was scanned twice, once for acquiring bone data and once for soft tissue data. […] After the segmentation process, the voxel count associated with each of the regions of interest was calculated using VHLab. […] Cartilage thickness was calculated using SCIRun (Scientific Computing and Imaging Institute, University of Utah). The distance from the bone to the outer surface of the articulating cartilage was calculated. […] Similarly, the thickness and thickness map image of the subchondral bone was calculated. […]

plasma proteins [3] = experiment: Fraction bound to plasma proteins, dog; assay type: in vitro ADME
[4] = system: dogs subjected to partial medial meniscectomy; experiment: Dog partial medial meniscectomy study, microscopic lesion width and depth ratio; assay type: in vivo
Description: Measurements of width of total lesion of any type (chondrocyte death, cloning, fibrillation, proteoglycan loss) were taken across the tibial and femoral surfaces to give a total lesion width. Significant lesion width (matrix loss extending beyond superficial degeneration; i.e., lesions consisting of changes greater than just proteoglycan loss) was also determined in an attempt to convey possible treatment differences based on evaluation of more serious and permanent/irreversible cartilage matrix changes. Multiple depth measurements in areas of greatest lesion severity were taken for each of the 4 quadrants in each of the 3 anterior to posterior sections. These consisted of measurements taken from the surface (or estimated original surface when severe degenerative changes are present) to the point where cartilage appeared normal. A second measurement was taken in this same area to the depth of the tidemark so that the number expressed is a ratio of lesion depth vs. depth of tidemark. The mean values for each quadrant (medial to lateral) for the 3 anterior to posterior sections were determined as well as an overall mean for the joint. In this measurement, the minor changes consisting of proteoglycan loss only are not measured and only lesions with definite chondrocyte loss and sometimes fibrillation are included. This parameter should reflect a similar result to the significant width measurement as it is an indicator of beneficial effects on the more severe pathology.

plasma proteins [5] = experiment: Fraction bound to plasma proteins, rabbit; assay type: in vitro ADME
[6] = system: dogs subjected to partial medial meniscectomy; experiment: Dog partial medial meniscectomy study, cartilage area image analysis; assay type: in vivo
Description: In order to quantitate and compare the cartilage matrix preservation, cartilage area measurements were taken from the most severely affected section of each animal. In this section, the most severely affected area - generally zone 2 - is analyzed at 25x magnification. Photomicrographs were taken with a digital microscope camera, and analyzed with appropriate software. The following measurements were taken:
Total area from the tidemark to the surface (or projected surface in degenerated areas), extending from the axial to abaxial aspects of the medial tibial plateau zones in the most severely affected area (generally zone 2)
Area of non-viable matrix (cartilage with less than 50% chondrocytes, proteoglycan, and intact collagen) and no matrix within the total area of zone 2 or most severely affected area in the photomicrograph
Area of no matrix within the total area being analyzed
The area of non-viable matrix in zone under analysis was subtracted from the total area in the photomicrograph to get the area of viable matrix in this area, and the area of no matrix was subtracted from the total area to get the area of any matrix (collagen matrix with or without chondrocytes and proteoglycan). These two values were then compared back to the total area to derive the % viable area and the % any matrix in this area of greatest lesion severity, which were compared between groups.

[7] = dog, individual animals of MIV-711 group
[8] = dog, mean of zones, individual animals of MIV-711 group
[9] = dog, mean of zones, versus Vehicle
[10] = individual dogs of MIV-711 group, mean of the 4 quadrants
[11] = individual dogs of MIV-711 group, width of any cartilage lesion, mean of 3 sections
[12] = individual dogs of MIV-711 group, width of degeneration with score of 1 or greater
[13] = individual animals of MIV-711 group, per section level (first line of animal, L2, L3)

## C#C[C@@H]1CN(C(=O)[C@H](CC(C)C)NC(=O)c2ccc(-c3nc(N4CCN(C)CC4)sc3F)cc2)[C@@H]2C(=O)CO[C@H]12 [MIV-711]
[1]
  Ki: 3.3 nM
[2]
  effect on osteophyte volumes in femur and tibia (µCT): not apparently affected
Plasma proteins [3]
  fraction bound to plasma proteins: 90%
[4]; MIV-711 group mean
  Femur Cartilage Degeneration Width Sig: 994.3 µm
  Femur Cartilage Degeneration Width Total: 3661.0 µm
  Femur Mean DRAMC (Depth Ratio Any Matrix Change): 0.084
  Tibia Cartilage Degeneration Width Sig: 2105.6 µm
  Tibia Cartilage Degeneration Width Total: 7336.0 µm
  Tibia Mean DRAMC (Depth Ratio Any Matrix Change): 0.13
[4]; MIV-711 group vs vehicle
  % inhibition, Femur Cartilage Degeneration Width Sig: 11%
  % inhibition, Femur Cartilage Degeneration Width Total: 13%
  % inhibition, Femur Mean DRAMC: -9%
  % inhibition, Tibia Cartilage Degeneration Width Sig: 5%
  % inhibition, Tibia Cartilage Degeneration Width Total: 0%
  % inhibition, Tibia Mean DRAMC: 17%
[4]; dog, group Mean
  Femur Depth Ratio Any Matrix Change Zone 1: 0.15
  Femur Depth Ratio Any Matrix Change Zone 2: 0.13
  Femur Depth Ratio Any Matrix Change Zone 3: 0.05
  Femur Depth Ratio Any Matrix Change Zone 4: 0.01
  Tibia Depth Ratio Any Matrix Change Zone 1: 0.05
  Tibia Depth Ratio Any Matrix Change Zone 2: 0.31
  Tibia Depth Ratio Any Matrix Change Zone 3: 0.11
  Tibia Depth Ratio Any Matrix Change Zone 4: 0.04
[4]; [7]
  Femur Depth Ratio Any Matrix Change Zone 1: 0.08 and 0.07 and 0.01 and 0.42 and 0.19 and 0.10 and 0.09 and 0.22 and 0.50 and 0.06 and 0.23
  Femur Depth Ratio Any Matrix Change Zone 2: 0.13 and 0.16 and 0.00 and 0.36 and 0.08 and 0.10 and 0.01 and 0.06 and 0.09 and 0.48 and 0.05 and 0.24
  Femur Depth Ratio Any Matrix Change Zone 3: 0.04 and 0.03 and 0.00 and 0.33 and 0.01 and 0.02 and 0.21
  Femur Depth Ratio Any Matrix Change Zone 4: 0.00 and 0.01 and 0.02 and 0.06
  Tibia Depth Ratio Any Matrix Change Zone 1: 0.06 and 0.08 and 0.01 and 0.09 and 0.03 and 0.13 and 0.00 and 0.15 and 0.11
  Tibia Depth Ratio Any Matrix Change Zone 2: 0.28 and 0.23 and 0.35 and 0.24 and 0.27 and 0.36 and 0.39 and 0.22 and 0.47 and 0.33 and 0.30 and 0.19
  Tibia Depth Ratio Any Matrix Change Zone 3: 0.14 and 0.11 and 0.18 and 0.08 and 0.15 and 0.07 and 0.24 and 0.06 and 0.04 and 0.19 and 0.03 and 0.05
  Tibia Depth Ratio Any Matrix Change Zone 4: 0.05 and 0.04 and 0.00 and 0.07 and 0.06 and 0.01 and 0.03 and 0.02
[4]; dog, mean of zones, group Mean
  Femur Depth Ratio Any Matrix Change Mean: 0.08
  Tibia Depth Ratio Any Matrix Change Mean: 0.13
[4]; [8]
  Femur Depth Ratio Any Matrix Change Mean: 0.06 and 0.07 and 0.00 and 0.28 and 0.04 and 0.03 and 0.01 and 0.08 and 0.31 and 0.12
  Tibia Depth Ratio Any Matrix Change Mean: 0.13 and 0.11 and 0.17 and 0.09 and 0.15 and 0.16 and 0.07 and 0.14 and 0.20
[4]; [9]
  % inhibition, Femur Depth Ratio Any Matrix Change Mean: -9%
  % inhibition, Tibia Depth Ratio Any Matrix Change Mean: 17%
[4]; dog, versus Vehicle
  % inhibition, Femur Depth Ratio Any Matrix Change Zone 1: -39%
  % inhibition, Femur Depth Ratio Any Matrix Change Zone 2: 10%
  % inhibition, Femur Depth Ratio Any Matrix Change Zone 3: -12%
  % inhibition, Femur Depth Ratio Any Matrix Change Zone 4: 44%
  % inhibition, Tibia Depth Ratio Any Matrix Change Zone 1: 55%
  % inhibition, Tibia Depth Ratio Any Matrix Change Zone 2: -2%
  % inhibition, Tibia Depth Ratio Any Matrix Change Zone 3: 23%
  % inhibition, Tibia Depth Ratio Any Matrix Change Zone 4: 19%
[4]; [10]
  Femur Mean DRAMC (Depth Ratio Any Matrix Change): 0.04 and 0.06 and 0.07 and 0.00 and 0.28 and 0.03 and 0.01 and 0.08 and 0.31 and 0.12
  Tibia Mean DRAMC (Depth Ratio Any Matrix Change): 0.07 and 0.13 and 0.11 and 0.17 and 0.09 and 0.15 and 0.16 and 0.14 and 0.20
[4]; [11]
  Femur Cartilage Degeneration Width Total: 3885 µm and 4200 µm and 4410 µm and 630 µm and 5040 µm and 3780 µm and 2310 µm and 3990 µm and 5880 µm and 2730 µm and 3675 µm
  Tibia Cartilage Degeneration Width Total: 6405 µm and 6510 µm and 8190 µm and 7560 µm and 8400 µm and 7980 µm and 6195 µm and 6930 µm and 6615 µm and 7245 µm and 7770 µm
[4]; [12]
  Femur Cartilage Degeneration Width Sig: 0 µm and 735 µm and 1260 µm and 3465 µm and 200 µm and 968 µm and 420 µm and 1890 µm and 733 µm and 815 µm and 3360 µm and 1068 µm
  Tibia Cartilage Degeneration Width Sig: 1638 µm and 1890 µm and 2310 µm and 1470 µm and 2520 µm and 2205 µm and 1155 µm and 3150 µm and 1575 µm and 1218 µm and 2163 µm and 4515 µm and 1785 µm
Plasma proteins [5]
  fraction bound to plasma proteins: 92%
[6]; group Mean
  Cartilage Area: % Any Matrix Area: 96%
  Cartilage Area: % Viable Area: 88%
[6]; [13]
  Cartilage Area: % Any Matrix Area: 100%
  Cartilage Area: % Viable Area: 100%
[6]; versus Vehicle
  Percent Inhibition, % Any Matrix Area: -11%
  Percent Inhibition, % Viable Area: 8%
